We go through 43 compounds from PubChem BioAssay (NCI).

Values joined by “and” are separate entries in the source; they are usually repeats but may differ in a detail not shown here. Equal values may be shown once.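 Following 48 hours of exposure in 96-well plates, responses at five concentrations were used to interpolate endpoints linearly. Here, GI50 denotes the concentration required for 50% inhibition of growth. The concentration for full growth arrest is given as TGI.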 Some results are limits rather than exact numbers.

This assay has as its system MDA-MB-468 breast. The assay is described as follows: growth of human tumour cells (NCI), 48 h.

`COc1ccc([C@H]2c3cc(OC)c(OC)cc3C=C(C=O)C2CO)cc1OC` (some centres undefined): the GI50 was 2.55 µM and the TGI amounted to 25.1 µM.
The matching figures for `CCOC(=O)c1c(NC(=O)c2ccc(C(F)(F)F)cc2)sc2c3c(ccc12)OCN(C)C3`: 1.56 µM and 3.18 µM.
For the compound `N#C/C(=C\c1ccc(-c2ccc(F)cc2)o1)C(=O)Nc1ncc(Cc2ccc(Cl)cc2Cl)s1`, the GI50 was 2.17 µM and the TGI turned out to be 5.01 µM.
In the same order, the values of `C#Cc1cccc(NC(=O)Nc2ccccc2NC(=O)CCl)c1` are 16 µM and 39.3 µM.
For the compound `C=C1C(=O)OC(CCCCCCCC)C1C(=O)O` (centres undefined), the GI50 is 5.61 µM and the TGI was determined as 16.7 µM.
As for `COc1cc([C@@H]2c3cc4c(cc3[C@H](OC3OC5COC(c6ccccc6)OC5C(O)C3O)[C@H]3COC(=O)[C@H]23)OCO4)cc(OC)c1OC` (some centres undefined), the GI50 was 0.472 µM and the TGI was 19.6 µM.
In the same order, the values of `C=C1C(=O)O[C@@H]2[C@@H]3O[C@@](C)(CC/C=C(\C)CCC[C@@H]2C)[C@H](O)C[C@@H]13` are 1.15 µM and 2.8 µM.
In the same order, the values of `CC(C)Oc1cc(OCC(=O)O)cc(C(=O)N(CCC(N)=O)C(=O)Nc2ccc(C(=O)O)cc2OC(C)C)c1` are greater than 100 µM and greater than 100 µM.
In the same order, the values of `N#Cc1c(N)nn(C(=O)c2ccc(NC(=O)c3ccccn3)cc2)c1-c1ccc(Cl)cc1` are 2.43 µM and 6.64 µM.
Regarding `COC12C=C/C(=C(/C(=O)OCc3ccncn3)C(=O)CCCCCCCCC3(OC)C=C/C(=C(/C(=O)OCc4ccncn4)C(=O)CCCCCCCC1)O3)O2`, the GI50 is 0.239 µM and the TGI turned out to be 0.682 µM.
The matching figures for `CCN1CCC(C(=O)Nc2n[nH]c3nnc(-c4cccc(F)c4F)cc23)CC1`: 2.32 µM and 6.78 µM.
With `CC/C(=C(\c1ccccc1)c1ccc(OCCN(C)C)cc1)c1ccccc1`, the GI50 is 1.34 µM and 1.95 µM and 3.92 µM; the TGI is 6.48 µM and 5.44 µM and 7.97 µM.
As for `C(=N\Nc1ncc(-c2cc3cc4c(cc3o2)OCO4)s1)/c1c[nH]c2ccccc12`, the GI50 is 1.01 µM and the TGI amounted to 6.05 µM.
In the same order, the values of `CC/C=C/[C@@H]1C=C[C@@H]2CCC[C@H]2[C@@H]1CC[C@H](O)[C@H](C)N` are 1.24 µM and 2.69 µM.
The matching figures for `COc1cc(-c2cc(-c3ccc(N(C)C)cc3)nc(N3CCC(O)CC3)c2C#N)cc(OC)c1OC`: 1.11 µM and 4.08 µM.
In the same order, the values of `CCN1CCN(C(=O)[C@]23CC[C@@H](C)[C@H](C)[C@@H]2C2=CC[C@@H]4[C@@]5(C)C/C(=C/c6cccnc6)C(=O)C(C)(C)[C@@H]5CC[C@@]4(C)[C@]2(C)CC3)CC1` are 1.65 µM and 3.43 µM.
`O=C(CCCCCCc1nc2ccc(Br)cc2[nH]1)NO`: the GI50 is 0.248 µM and the TGI came to 6.37 µM.
On to `CCOC(=O)c1cnc2ccc(Cl)cc2c1NCCCN(C)C`, for which the GI50 is 16.2 µM and the TGI came out at 45.4 µM.
In the same order, the values of `CCN(CC)CCn1c(=N)n(CC(O)c2ccc(Cl)c(Cl)c2)c2ccccc21` (centres undefined) are 2.49 µM and 8.09 µM.
As for `CCCCc1ccc2nc(NC(=O)OC)[nH]c2c1`, the GI50 is 0.107 µM and the TGI came to 1.6 µM.
The matching figures for `COc1ccc(CN2CCc3c(Cl)nc(N)nc3C2=O)c(OC)c1`: 5.85 µM and 33.1 µM.
The matching figures for `CCN(CC)CCCCCCCCNc1c2ccc(Cl)cc2nc2ccc(OC)cc12`: 1.44 µM and 2.77 µM.
The matching figures for `CCc1cc(C(N)=O)ccc1-n1nc(C(C)C)c2c(-n3cnc(-c4cnn(C)c4)c3)ccnc21`: 0.821 µM and greater than 22.2 µM.
In the case of `COc1ccccc1/C=C1\COc2ccc(O)c(O)c2C1=O`, the GI50 is 1.24 µM and the TGI is 3.29 µM.
For `COc1ccc(C(=O)CC2(O)C(=O)Nc3c(Cl)ccc(Cl)c32)cc1` (centres undefined), the GI50 was 0.536 µM.
Same read-out and setting: the figure for `CC[C@]1(O)C[C@@H]2CN(Cc3c([nH]c4ccccc34)[C@@](C(=O)OC)(c3cc4c(cc3OC)N(C)[C@H]3[C@@](O)(C(=O)OC)[C@H](OC(C)=O)[C@]5(CC)[C@@H]6C[C@@H]6CN6CC[C@]43[C@@H]65)C2)C1` is 0.017 µM.
`FC(F)(F)c1ccc2nc(-c3nc(-c4ccccc4)n4ccccc34)[nH]c2c1`: the GI50 was 2.02 µM and the TGI worked out at 7.31 µM.
In the same order, the values of `COc1cc[c]([Hg][Cl])cc1` are 1.66 µM and 3.35 µM.
The matching figures for `CC(C)(O)Cn1c(=O)c(Oc2ccc(F)cc2F)cc2cnc(NC3CCOCC3)nc21`: greater than 25 µM and greater than 25 µM.
In the same order, the values of `CCOC(=O)c1cc2c(n1Cc1cccc(OC)c1)-c1oncc1CC2` are 0.346 µM and 2.49 µM.
As for `CCc1nc(N)nc(N)c1-c1ccc(Cl)cc1`, the GI50 was 11.4 µM and the TGI was greater than 100 µM.
The matching figures for `Cc1ccc(CCC(=O)Nc2ncc(Cc3cc(Cl)ccc3Cl)s2)o1`: 0.266 µM and 20.7 µM.
In the case of `O=C(Nc1ccc(Cl)c(Cl)c1)Nc1ccc(Cl)c([N+](=O)[O-])c1`, the GI50 was 0.884 µM and the TGI was 3.52 µM.
In the same order, the values of `Cc1ncc(C(=O)Nc2ccc(CN3CCN(C)CC3)c(C(F)(F)F)c2)cc1C#Cc1c(N)ncc2ccc(C#N)cc12` are 7.86 µM and 28.1 µM.
In the same order, the values of `Cc1cc(Cl)n2c(nc3ccccc32)c1C#N` are 0.394 µM and 1.84 µM.
In the case of `COc1ccc(/C=C2/SC(=Nc3c(C)nn(-c4ccccc4)c3N)NC2=O)cc1`, the GI50 was 3.24 µM and the TGI was 12.4 µM.
As for `COc1c(O)c2ccccc2c2cc(O)ccc12`, the GI50 is 3.7 µM and the TGI is 15 µM.
In the same order, the values of `CCOc1ccc([C@H]2C(C(=O)c3ccc(Cl)cc3)C3(N[C@@H]2c2ccccc2)C(=O)Nc2ccc(Br)cc23)cc1` (some centres undefined) are 16.6 µM and 41.8 µM.
With `O=c1ccc2nc(-c3ccccc3)nn(-c3ccccc3)c-2c1`, the GI50 was 1.02 µM and the TGI is 2.4 µM.
The matching figures for `Cc1cc2c(-c3nc4ccccc4[nH]3)c(O)c(O)cc2c(O)c1-c1c(C)cc2c(-c3nc4ccccc4[nH]3)c(O)c(O)cc2c1O`: 0.02 µM and 0.601 µM.
In the same order, the values of `O=C(Nc1ccccc1)c1cc2c(cc1Cl)Sc1nccn1S2(=O)=O` are 5.47 µM and 26.3 µM.
In the same order, the values of `COc1ccc(C(=O)c2cc3c(N)c(C(=O)Nc4cccc(Cl)c4)sc3nc2C)cc1` are 0.859 µM and 2.83 µM.
With `O=C1CCC/C=C\C[C@H]2C=C(Cl)C(=O)/C2=C/C[C@H](CCCCC(F)(F)F)OC(=O)CCC/C=C\C[C@H]2C=C(Cl)C(=O)/C2=C/C[C@H](CCCCC(F)(F)F)O1`, the GI50 was 0.239 µM and the TGI was 0.721 µM.
